According to patent US20240207421A1, “NERVE TARGETING PEPTIDES AND METHODS OF USE” (ALUME BIOSCIENCES, INC., priority 2020, published 2024):

Tested on: Human Nidogen-2
Assay: Phage display library screening (Example 2, Python script analysis), binding to Human Nidogen-2
Details: combined unique sequence count, Python/R script analysis
Protocol: (§1) Phage display library screens were used to identify peptides that bind to target proteins (including specific laminin trimers) that are expressed in human nerves, as described in Table 3. These screens were also carried out to identify peptides that could bind selectively to nerves versus muscle. Such peptides could therefore be useful for systemic in-vivo labeling of nerves during fluorescence assisted surgery. Specifically, m 13 phage libraries expressing 7 or 12 random amino acid peptides, or a cyclic peptide CX7C, on the N-terminus of the minor coat protein pIII (New England Biolabs; NEB) were processed through multiple rounds of selection for binding to target proteins expressed in nerves, or to excised human nerves, nerve extracts, or muscle, as described further below.
(§2) For screening against the specified target proteins in Table 1, including LN211, LN411, LN421, and LN521, the phage library was processed by up to 4 binding and wash cycles. For selection, phage libraries were incubated for up to 24 hours at 4° C. in 96 well plates that had been coated with one of the target proteins. Plates were then washed with PBS and phage were eluted using 0.2M glycine pH 2.0. Phage supernatants where then neutralized with Tris pH 9.0 prior to plating on TGI bacteria and LB agar plates. Colonies were counted to determine titer followed by DNA preparation of pools of phage and NextGen sequencing. After rounds of selection, phage were pooled and amplified for iterative selection. Phage that were bound at each round were sequenced. NextGen sequencing of pools after 2, 3 and 4 rounds of selection was used to isolate candidate sequences that were analyzed further to identify those that specifically bound each unique target protein.
(§3) Python Script Analysis: For all NEB sequence datasets, a python script was used to translate, trim, and filter the peptide sequences. The script translated the nucleotide sequences, translating amber codons as glutamine in peptide sequences, and then trimmed the end sequences that come from the vector. Secondly, the script combined the unique counts of trimmed peptides with identical sequences. […] Another python script was used to group peptides from different assays according to protein target (Myelin Protein Zero, Myelin Proteolipid Protein, Myelin Basic Protein, and Nidogen-2) and also combine the unique sequence counts for each peptide. An R script was written to merge the peptide sequences from different data files and determine peptides specific for each protein target but absent from different protein binding datasets. Peptide sequences were ranked by unique sequence count.

| Substance | Count |
| --- | --- |
| ALYLPGR (Nidogen-2-binding peptide) | 7 |
| ARMAFSL (Nidogen-2-binding peptide) | 7 |
| ATYNMSQ (Nidogen-2-binding peptide) | 7 |
| CIHHKGVLC (Nidogen-2-binding peptide) | 6 |
| CKDGHIRHC (Nidogen-2-binding peptide) | 6 |
| CNLATSLQC (Nidogen-2-binding peptide) | 6 |
| CRSPHEPMC (Nidogen-2-binding peptide) | 6 |

Tested on: Human Myelin PLP
Assay: Phage display library screening (Example 2, Python script analysis), binding to Human Myelin PLP
Details: combined unique sequence count, Python/R script analysis
Protocol: as §1, §2, §3

| Substance | Count |
| --- | --- |
| IHHLESS (Myelin PLP-binding peptide) | 32 |
| IIPPTSV (Myelin PLP-binding peptide) | 31 |
| IRPTHNG (Myelin PLP-binding peptide) | 27 |
| KGVIPAT (Myelin PLP-binding peptide) | 27 |
| KPSASIY (Myelin PLP-binding peptide) | 26 |
| LHQTYRP (Myelin PLP-binding peptide) | 27 |
| LMQKPSI (Myelin PLP-binding peptide) | 29 |
| LNGISAL (Myelin PLP-binding peptide) | 32 |
| LPHRLNP (Myelin PLP-binding peptide) | 27 |
| LPLRLHA (Myelin PLP-binding peptide) | 31 |
| LPSHASI (Myelin PLP-binding peptide) | 26 |
| LPVKNLL (Myelin PLP-binding peptide) | 26 |
| MKIMPMD (Myelin PLP-binding peptide) | 26 |
| MPHAPVQ (Myelin PLP-binding peptide) | 37 |
| NDASTVS (Myelin PLP-binding peptide) | 28 |
| NIPSSIL (Myelin PLP-binding peptide) | 33 |
| NVFSATP (Myelin PLP-binding peptide) | 31 |
| QLPRNNL (Myelin PLP-binding peptide) | 28 |
| QPNMLKP (Myelin PLP-binding peptide) | 33 |
| QRRSVIL (Myelin PLP-binding peptide) | 31 |

| Substance | Count |
| --- | --- |
| RLQPEPT (Myelin PLP-binding peptide) | 33 |
| SALISTR (Myelin PLP-binding peptide) | 32 |
| SAQSRSF (Myelin PLP-binding peptide) | 26 |
| SGLHYAL (Myelin PLP-binding peptide) | 32 |
| SGVATYT (Myelin PLP-binding peptide) | 31 |
| SLNRGGA (Myelin PLP-binding peptide) | 28 |
| SLPGYRH (Myelin PLP-binding peptide) | 28 |
| SLPSLLP (Myelin PLP-binding peptide) | 26 |
| SVEKYSK (Myelin PLP-binding peptide) | 33 |
| SVLPDKL (Myelin PLP-binding peptide) | 28 |
| SVMWMTP (Myelin PLP-binding peptide) | 29 |
| SVVYQNS (Myelin PLP-binding peptide) | 26 |
| SWDVLEL (Myelin PLP-binding peptide) | 31 |
| TDVEMVP (Myelin PLP-binding peptide) | 40 |
| TFPERLR (Myelin PLP-binding peptide) | 31 |
| TGISSTP (Myelin PLP-binding peptide) | 27 |
| TKITPHR (Myelin PLP-binding peptide) | 29 |
| TLWAQKT (Myelin PLP-binding peptide) | 28 |
| TMPIKAM (Myelin PLP-binding peptide) | 27 |
| TQPRYPS (Myelin PLP-binding peptide) | 28 |

| Substance | Count |
| --- | --- |
| TRASYPQ (Myelin PLP-binding peptide) | 32 |
| TTTIADM (Myelin PLP-binding peptide) | 26 |
| VFPERRV (Myelin PLP-binding peptide) | 28 |
| VGYRSAS (Myelin PLP-binding peptide) | 28 |
| VPGHISG (Myelin PLP-binding peptide) | 27 |
| VRTSMNH (Myelin PLP-binding peptide) | 28 |
| VSASWMP (Myelin PLP-binding peptide) | 27 |
| VSSQEQA (Myelin PLP-binding peptide) | 34 |
| VTGPGTP (Myelin PLP-binding peptide) | 26 |
| VTPNKAR (Myelin PLP-binding peptide) | 26 |
| WHYTPSM (Myelin PLP-binding peptide) | 26 |
| WNTADRL (Myelin PLP-binding peptide) | 34 |
| WSPHGYK (Myelin PLP-binding peptide) | 27 |
| WSPHRSF (Myelin PLP-binding peptide) | 31 |
| WSRISVD (Myelin PLP-binding peptide) | 26 |
| YSDTYKH (Myelin PLP-binding peptide) | 30 |
| YSQAISA (Myelin PLP-binding peptide) | 27 |
| YSSRLTA (Myelin PLP-binding peptide) | 29 |
| YTWTPSR (Myelin PLP-binding peptide) | 28 |

Molecular target: Human MPZ (human) (UniProt P25189)
Sequence (P25189 30-153 limits assumed): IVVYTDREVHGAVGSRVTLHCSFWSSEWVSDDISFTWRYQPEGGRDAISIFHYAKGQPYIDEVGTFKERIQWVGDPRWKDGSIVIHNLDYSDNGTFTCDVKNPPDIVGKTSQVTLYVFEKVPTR
Assay: phage display, NGS count
Details: not given

| Substance | Count |
| --- | --- |
| ALPISYL (peptide) | 42 |
| AWTMRAS (peptide) | 39 |
| FMSDVDH (peptide) | 37 |
| GGSKVWG (peptide) | 40 |
| HHPLFID (peptide) | 39 |
| IEQVGWR (peptide) | 38 |
| ISSVTVV (peptide) | 37 |
| LVLSNPR (peptide) | 46 |
| LWAKRDA (peptide) | 38 |
| MYHDSVS (peptide) | 47 |
| SGHGAFR (peptide) | 42 |
| TLLHYSA (peptide) | 40 |
| TTLVVTA (peptide) | 42 |
| TTWPNTA (peptide) | 45 |
| WPRPIQI (peptide) | 41 |
| WTSVATA (peptide) | 41 |
| YGQSITE (peptide) | 37 |
| YMKHSPG (peptide) | 45 |
| YSSLTSN (peptide) | 38 |

Next, values leading:

| Count | Substance |
| --- | --- |
| 45 | AMSNLSY (peptide) |
| 40 | DRYLLNQ (peptide) |
| 41 | FALPAGL (peptide) |
| 42 | FEHMAVT (peptide) |
| 40 | FPSYTIS (peptide) |
| 41 | FRVTQTA (peptide) |
| 39 | FSPRDVS (peptide) |
| 39 | FSTTGRG (peptide) |
| 40 | GLWRHTM (peptide) |
| 46 | GPVVSGM (peptide) |
| 52 | GSWSSGF (peptide) |
| 46 | HLDSRRH (peptide) |
| 38 | HNQLLYT (peptide) |
| 45 | HPFPRFD (peptide) |
| 41 | HPLMVPS (peptide) |
| 44 | KLPTLSV (peptide) |
| 37 | KQPAMEN (peptide) |
| 40 | KRNLWDI (peptide) |
| 38 | KTPILAS (peptide) |
| 37 | LISPTAR (peptide) |
| 45 | LPAESHW (peptide) |
| 41 | LPNANNL (peptide) |
| 43 | LSPPRIM (peptide) |
| 37 | LVLQTTP (peptide) |

| Count | Substance |
| --- | --- |
| 39 | LVNPFPE (peptide) |
| 41 | MIHTRQT (peptide) |
| 42 | NASVPPK (peptide) |
| 46 | NMSHSNR (peptide) |
| 38 | NPISPRN (peptide) |
| 37 | NPTSEGA (peptide) |
| 38 | NTASMTT (peptide) |
| 50 | QIAHLEY (peptide) |
| 38 | SAHSVVE (peptide) |
| 41 | SETESYM (peptide) |
| 41 | SNALSYF (peptide) |
| 40 | SPNTNSH (peptide) |
| 45 | STHEWRT (peptide) |
| 46 | SVAYVPV (peptide) |
| 41 | SYLPPFI (peptide) |
| 37 | THSTDLS (peptide) |
| 41 | VHTPYRS (peptide) |
| 40 | VPLAYLR (peptide) |
| 40 | VVPLKWI (peptide) |
| 43 | WMTNLDP (peptide) |
| 37 | YAPWRVF (peptide) |
| 39 | YEGERGA (peptide) |
| 46 | YPQARTS (peptide) |
